Test results taken from EPA's ToxValDB 9.5.
Values after ≈ are worked out from the molar mass of the structure shown. Values joined by “and” are separate entries in the source; they are usually repeats but may differ in a detail not shown here. Equal values may be shown once.

Columns and labels:
[1] = system: Rattus norvegicus; conditions: developmental; oral; gavage; M; Sprague-Dawley; generation: F1; F1: Testosterone (Testes)
[2] = system: Rattus norvegicus; conditions: for LOEL / NOEL: Hershberger, gavage; for LEL: uterotrophic, Active
[3] = system: Rattus norvegicus; conditions: for LC50 / LD50: acute
[4] = system: Mus musculus; conditions: for LD50 / LC50: acute
[5] = system: Rattus norvegicus; conditions: chronic, duration: 2 years, oral, diet, M/F
[6] = system: Oryctolagus sp.; conditions: chronic; duration: 4 months; inhalation
[7] = system: Rattus norvegicus; conditions: short-term, duration: 28 days, oral, Wistar; for NOEL: gavage, M/F
[8] = duration: 10 days, oral, Sprague-Dawley, active + Antiandrogenic + anti-androgenic
[9] = chronic, duration: 4 months, inhalation
[10] = reduced body weight gain, erythrocyte count and hemoglobin level
[11] = chronic, duration: 693 days, oral, diet, Sprague-Dawley
[12] = reproduction developmental, duration: 94 days, oral, diet, Sprague-Dawley, generation: F0
[13] = subchronic, duration: 13 weeks, oral, diet, Sprague-Dawley
[14] = reproduction developmental, duration: 5 days, inhalation, CD1, generation: F0
[15] = subchronic, duration: 13 weeks, oral, diet, Wistar
[16] = subchronic, duration: 13 weeks, oral, diet, ICR

## CC(C)CCCCCCOC(=O)c1ccccc1C(=O)OCCCCCCC(C)C [Diisononyl phthalate]
[1]
  NOEL: 750 mg/kg-day
[2]; [8]
  LOEL: 500 mg/kg-day
  NOEL: 100 mg/kg-day

## COP(=S)(OC)Oc1ccc(SC)c(C)c1 [Fenthion]
[2]; duration: 7 days, oral, Fischer 344, active + Antiandrogenic + anti-androgenic
  LOEL: 25 mg/kg-day

## CN=C=O [Methyl isocyanate]
[3]; developmental, duration: 0.5 hours, inhalation
  LOAEL: < 0.495 mg/m3
[3]; reproduction developmental, duration: 8 minutes, inhalation, whole body, Wistar, generation: F0
  NOAEL: > 3140 mg/m3
[3]; reproduction developmental, duration: 0.5 hours, inhalation, F
  LOAEL: < 0.495 mg/m3
[3]; reproduction developmental, duration: 0.5 hours, inhalation, generation: F0
  NOAEL: > 0.824 mg/m3
[4]; developmental, duration: 6 hours, inhalation, Swiss
  LOAEL: < 2.33 mg/m3
[4]; reproduction developmental, duration: 6 hours, inhalation, F, Swiss
  NOAEL: > 7 mg/m3
[4]; reproduction developmental, duration: 6 hours, inhalation, Swiss, generation: F0
  NOAEL: > 7 mg/m3

## CCCCC(C#N)(Cn1cncn1)c1ccc(Cl)cc1 (stereo not given) [Myclobutanil]
[5]; testicular atrophy
  LEL: 9.84 mg/kg-day
  NOEL: 2.49 mg/kg-day
[2]; duration: 10 days, oral, Sprague-Dawley, inactive + Negative + Negative + anti-androgenic + decrease in AST wt at 200 and serum testosterone 49% / increase in PPS at 400 and serum …
  NOEL: 50 mg/kg-day

## C1CCNCC1 [Piperidine]
[3]; inhalation
  LC50: > 6970 mg/m3
[3]; [9]
  LOAEL: 0.01 mg/L
  NOAEL: 0.002 mg/L
[3]; chronic, duration: 50 weeks, oral, drinking water, Sprague-Dawley
  NOAEL (% diet): 0.09
[6]
  LOAEL: 0.01 mg/L
  NOAEL: 0.002 mg/L
[4]; oral, DD
  LD50: 536 mg/kg and 633 mg/kg

## CCCOC(=O)c1ccc(O)cc1 [Propylparaben]
[2]; duration: 3 days, injection, subcutaneous
  LEL: 65 mg/kg-day

## CC(C)(C)C(=O)C(Oc1ccc(Cl)cc1)n1cncn1 (stereo not given) [Triadimefon]
[5]; [10]
  LEL: 25 mg/kg-day
  NOEL: 2.5 mg/kg-day
[2]; duration: 10 days, oral, Sprague-Dawley, inactive + Negative + Negative + both + decreased AGD, delayed PPS, decreased AST wt / inhibits CYP17 / increases liver wt 37% and …
  NOEL: 25 mg/kg-day

## CCC[CH2][Sn]([Cl])([CH2]CCC)[CH2]CCC [Tributyltin chloride]
[2]; duration: 0 days, oral, diet
  LEL: 125 ppm
[7]; diet, M, Body Weight Changes: Weight gain decrease + Food Consumption: decrease + Absolute Organ Weight: Thymus decrease + Relative Organ Weight: …
  NOAEL: 5 ppm

## O=c1n(CC2CO2)c(=O)n(CC2CO2)c(=O)n1CC1CO1 (stereo not given) [Tris(2,3-epoxypropyl)isocyanurate]
[3]; Inhalation, TIF: RAIF (SPF)
  LC50: > 300 mg/m3
[3]; Inhalation, Tif.RAIF (SPF)
  LC50: 650 mg/m3
[3]; dermal, Sprague-Dawley
  LD50: > 3100 mg/kg
[3]; dermal, semiocclusive, Sprague-Dawley
  LD50: > 2000 mg/kg
[3]; dermal, semiocclusive, TIF. RAIF (SPF)
  LD50: > 2000 mg/kg
[3]; inhalation, particle, Wistar
  LC50: > 4.16 µg/mL
[3]; oral, gavage, Sprague-Dawley
  LD50: 447 mg/kg
[3]; oral, gavage, TIF: RAIF (SPF)
  LD50: 305 mg/kg
[3]; [11]
  LOAEL: > 100 mg/kg-day
  NOAEL: 100 mg/kg-day
[3]; [12]
  LOAEL: > 100 mg/kg-day
  NOAEL: 30 mg/kg-day
[3]; [13]
  LOAEL: > 100 mg/kg-day
  NOAEL: 30 mg/kg-day
[4]; inhalation, particle, CD1
  LC50: 2 µg/mL (≈ 6.73 µM)
[4]; [14]
  LOAEL: > 8 mg/m3
  NOAEL: > 8 mg/m3

## NC(CO)(CO)CO [Tromethamine]
[3]; dermal
  LD50: > 1000 mg/kg
[3]; injection, intravenous
  LD50: 6000 mg/kg
[3]; oral, gavage, Wistar
  LD50: > 3000 mg/kg
[3]; reproduction developmental, duration: 29 days, oral, gavage, Crl:CD(SD), generation: F0
  NOAEL: 1000 mg/kg-day
[3]; reproduction developmental, duration: 29 days, oral, gavage, Crl:CD(SD), generation: F1
  NOAEL: 1000 mg/kg-day
[3]; reproduction developmental, duration: 29 days, oral, gavage, generation: F0
  NOAEL: 1000 mg/kg-day
[3]; reproduction developmental, duration: 29 days, oral, gavage, generation: F1
  NOAEL: 1000 mg/kg-day
[3]; short-term, duration: 20 days, injection, intravenous, Sprague-Dawley
  NOAEL: 500 mg/kg-day
[4]; dermal
  LD50: > 1000 mg/kg
[4]; injection, Intraperitoneal
  LD50: 3350 mg/kg
[4]; injection, intravenous
  LD50: 6100 mg/kg
[4]; oral, gavage, Swiss
  LD50: > 3000 mg/kg

## C=CF [Vinyl fluoride]
[3]; subchronic, duration: 90 days, inhalation, Crl:CDABR
  LOAEL: 377 mg/m3
[4]; inhalation
  LC50: 1.3e+06 mg/m3
[4]; subchronic, duration: 90 days, inhalation, Crl:CD-1 (ICR) BR
  LOAEL: 377 mg/m3

## COP(=O)(OC)O/C(=C\Cl)c1cc(Cl)c(Cl)cc1Cl [Z-Tetrachlorvinphos]
[2]; duration: 10 days, oral, Sprague-Dawley, inactive + Negative + Negative + neither + negative
  NOEL: 350 mg/kg-day
[7]; Deaths + Clinical Observation: Soiled perineal region + Body Weight Changes: decrease + Blood Chemistry: AST decrease, gamma-GTP increase, …
  NOEL: < 10 mg/kg-day
[7]; Deaths + Clinical Observation: Soiled perineal region + Body Weight Changes: decrease + Hematology: RBC decrease, HGB decrease, HCT decrease…
  NOEL: < 10 mg/kg-day

## [Cl][Zn][Cl] [Zinc chloride]
[3]; short-term, duration: 4 weeks, oral, drinking water, Wistar
  LOAEL: 12 mg/kg-day
[3]; [15]
  LOAEL: 2880 mg/kg-day
  NOAEL: 288 mg/kg-day
[4]; oral, gavage, Swiss
  LD50: 1260 mg/kg and 605 mg/kg
[4]; developmental, duration: 18 days, injection, Intraperitoneal, CF1
  NOAEL: 12.5 mg/kg-day
[4]; reproduction developmental, duration: 18 days, injection, Intraperitoneal, F, CF1
  NOAEL: 12.5 mg/kg-day
[4]; [16]
  LOAEL: 5910 mg/kg-day
  NOAEL: 591 mg/kg-day
